According to article PMC6332318, “Synthetic Development of New 3-(4-Arylmethylamino)butyl-5-arylidene-rhodanines under Microwave Irradiation and Their Effects on Tumor Cell Lines and against Protein Kinases” (Molecules, 2015):
Where two headings read alike, the source gives them in different places.

Experiments:
[1] = tested on: PC3 cells (prostate carcinoma); assay: in vitro inhibition of cell proliferation / survival assay; format: cell-based; conditions: for % of Survival: measured at 25 μM after 48 h; for % of Survival / viability at 25 µM: single dose, triplicate; for viability at 25 µM: PC-3, measured at 25 μM after 48 h
Experimental: (§1) As an initial effort to investigate their in vitro bioactivity, the new synthesized 3-(4-arylmethylamino)butyl-2-thioxo-1,3-thiazolidine-4-one 9a–n and also their precursors 6a–f were evaluated for their in vitro inhibition of cell proliferation. For this study, we used a panel of seven representative tumoral cell lines, namely HuH7 D12 (differential hepato cellular carcinoma), Caco 2 (differentiating colorectal adenocarcinoma), MDA-MBD231 ([…]), HCT 116 (actively proliferating colorectal adenocarcinoma), PC3 (prostate carcinoma), NCI-H727 (lung carcinoma), HaCat keratinocyte and, diploid skin fibroblasts as normal cell lines for control.
(§2) Skin diploid fibroblastic cells were provided by BIOPREDIC International Company (Rennes, France). Caco2 (Ref ECACC: 86010202), Huh-7D12 (Ref ECACC: 01042712), MDA-MB-231 (Ref ECACC: 92020424), HCT-116 (Ref ECACC: 91091005), PC3 (Ref ECACC: 90112714), NCI-H727 (Ref ECACC: 94060303) cell lines were obtained from the ECACC collection and HaCaT (from Cell Lines Service, Eppelheim, Germany). Cells were grown according to ECACC recommendations. The toxicity test of the compounds on these cells was as follows: 2 × 10^3 cells for HCT-116 cells or 4 × 10^3 for the other cells were seeded in 96 multiwell plates in triplicate and left for 24 h for attachment, spreading and growing. Then, cells were exposed for 48 h to increasing concentrations of the compounds, ranging from 0.1 to 25 μM in a final volume of 120 μL of culture medium. Cells were fixed in cooled solution of 90% ethanol/5% acetic acid, nuclei were stained with Hoechst 3342 (Sigma) and counted using automated imaging analysis (Cellomics Arrayscan VTI/HCS Reader, Thermo/Scientific, Waltham, MA, USA). The IC50 were graphically determined.

HaCat keratinocyte = assay: as above; format: cell-based; conditions: for % of Survival / viability at 25 µM: measured at 25 μM after 48 h, single dose, triplicate; for viability at 25 µM / IC50: Homo sapiens; for IC50: HaCaT, 48 h, average of three assays, standard error ± 0.5 μM
Experimental: as §1, §2

MDA-MB231 cells = assay: as above; format: cell-based; conditions: for % of Survival: measured at 25 μM after 48 h; for % of Survival / viability at 25 µM: single dose, triplicate; for viability at 25 µM / IC50: Homo sapiens; for viability at 25 µM: MDA-MB-231, measured at 25 μM after 48 h; for IC50: MDA-MB-231, 48 h, average of three assays, standard error ± 0.5 μM
Experimental: as §1, §2

[2] = tested on: NCI-H727 cells (lung carcinoma); assay: as above; format: cell-based; conditions: for viability at 25 µM: Homo sapiens, read-out: % of Survival
Experimental: as §1, §2

[3] = tested on: Caco 2 cells (differentiating colorectal adenocarcinoma); assay: as above; format: cell-based; conditions: for % of Survival / viability at 25 µM: measured at 25 μM after 48 h, single dose, triplicate; for viability at 25 µM / IC50: Homo sapiens; for IC50: 48 h, average of three assays, standard error ± 0.5 μM
Experimental: as §1, §2

[4] = tested on: Huh7 D12 cells (differential hepato cellular carcinoma); assay: as above; format: cell-based; conditions: for % of Survival: measured at 25 μM after 48 h; for % of Survival / viability at 25 µM: single dose, triplicate; for viability at 25 µM: Huh-7D12, measured at 25 μM after 48 h; for IC50: Huh-7D12, 48 h, average of three assays, standard error ± 0.5 μM
Experimental: as §1, §2

[5] = tested on: HCT 116 cells (actively proliferating colorectal adenocarcinoma); assay: as above; format: cell-based; conditions: for % of Survival / viability at 25 µM: measured at 25 μM after 48 h, single dose, triplicate; for viability at 25 µM / IC50: Homo sapiens; for IC50: 48 h, average of three assays, standard error ± 0.5 μM
Experimental: as §1, §2

diploid skin fibroblasts = assay: in vitro inhibition of cell proliferation / survival assay, normal cells control; format: cell-based; conditions: for viability at 25 µM: read-out: % of Survival
Experimental: as §1, §2

[6] = NCI-H727, measured at 25 μM after 48 h, single dose, triplicate
[7] = Fibroblasts, measured at 25 μM after 48 h, single dose, triplicate
[8] = Skin fibroblast, Fibroblasts, measured at 25 μM after 48 h, single dose, triplicate

| SMILES | viability at 25 µM ([1]; Homo sapiens) [%] | viability at 25 µM (HaCat keratinocyte) [%] | viability at 25 µM (MDA-MB231 cells) [%] | viability at 25 µM [2, 6] [%] | viability at 25 µM [3] [%] | viability at 25 µM [4] [%] | viability at 25 µM [5] [%] | melting point | viability at 25 µM (diploid skin fibroblasts; [8]) [%] | other results |
| --- | --- | --- | --- | --- | --- | --- | --- | --- | --- | --- |
| Cl.NCCCCNCc1ccc2c(c1)OCCO2 [Compound 6f, N-1-(2,3-Dihydro-benzo[1,4]dioxin-6-ylmethyl)-butane-1,4-diamine hydrochloride] |  |  |  |  |  |  |  |  |  | % of Survival [1]: 97%; % of Survival (HaCat keratinocyte): 94%; % of Survival (MDA-MB231 cells): 99%; % of Survival [2, 6]: 92%; % of Survival [3]: 109%; % of Survival [4]: 88%; % of Survival [5]: 96%; % of Survival (diploid skin fibroblasts; [7]): 105% |
| COc1cc(/C=C2\SC(=S)N(CCCCNCc3ccc4c(c3)OCO4)C2=O)ccc1O [Compound 9k, (5Z)3-[4-(1,3-Benzodioxol-5-ylmethylamino)butyl]-5-(4-hydroxy-3-methoxybenzylidene)-2-thioxo-1,3-thiazolidin-4-one] | 83 | 80 | 92 | 96 | 98 | 72 | 98 | 200 to 203 °C | 84 |  |
| CC[C@H](CO)Nc1nc(NCc2ccccc2)c2ncn(C(C)C)c2n1 [Roscovitine, reference compound] |  |  |  |  |  |  |  |  |  | viability at 25 µM ([2]; NCI-H727, 48 h): 30%; viability at 25 µM (diploid skin fibroblasts; Skin fibroblast, 48 h): 53% |
| Cl.NCCCCNCc1ccc2c(c1)OCO2 [Compound 6e, N-1-Benzo[1,3]dioxol-5-ylmethyl-butane-1,4-diamine hydrochloride] | 96 | 96 | 102 | 98 | 106 | 91 | 102 | > 260 °C | 93 |  |
| COc1ccc(CNCCCCN)cc1.Cl [Compound 6b, N-1-(4-Methoxy-phenylmethyl)-butane1,4-diamine hydrochloride] |  |  |  |  |  |  |  |  |  | % of Survival [1]: 100%; % of Survival (HaCat keratinocyte): 106%; % of Survival (MDA-MB231 cells): 100%; % of Survival [2, 6]: 86%; % of Survival [3]: 114%; % of Survival [4]: 107%; % of Survival [5]: 112%; % of Survival (diploid skin fibroblasts; [7]): 100% |
| CC(=O)O[C@H]1C(=O)[C@@]2(C)[C@H]([C@H](OC(=O)c3ccccc3)[C@]3(O)C[C@H](OC(=O)[C@H](O)[C@@H](NC(=O)c4ccccc4)c4ccccc4)C(C)=C1C3(C)C)[C@]1(OC(C)=O)CO[C@@H]1C[C@@H]2O [Taxol, reference compound] | 35 | 11 | 41 | 59 | 29 | 36 | 9 |  | 76 | IC50 ([1]; Homo sapiens, PC-3, 48 h, average of three assays, standard error ± 0.5 μM): < 1 nM; IC50 (HaCat keratinocyte): 1 nM; IC50 (MDA-MB231 cells): 40 nM; IC50 [3]: 40 nM; IC50 [4]: 3 nM; IC50 [5]: < 1 nM; IC50 (diploid skin fibroblasts; Skin fibroblast, Fibroblasts, 48 h, average of three assays, standard error ± 0.5 μM): > 25000 nM |
| O=C1/C(=C/c2ccc3c(c2)OCO3)SC(=S)N1CCCCNCc1ccc2c(c1)OCCO2 [Compound 9l, (5Z)-[4-(2,3-Dihydro-benzo[1,4]dioxin-6-ylmethylamino)butyl]-5-(1,3-benzodioxol-5-ylmethylene)-2-thioxo-1,3-thiazolidin-4-one] | 93 | 95 | 98 | 96 | 105 | 90 | 106 |  | 128 |  |
| COc1cccc(CNCCCCN)c1.Cl [Compound 6d, N-1-(3-Methoxy-phenylmethyl)-butane-1,4-diamine hydrochloride] |  |  |  |  |  |  |  |  |  | % of Survival [1]: 98%; % of Survival (HaCat keratinocyte): 96%; % of Survival (MDA-MB231 cells): 99%; % of Survival [2, 6]: 92%; % of Survival [3]: 111%; % of Survival [4]: 107%; % of Survival [5]: 111%; % of Survival (diploid skin fibroblasts; [7]): 93% |
| Cl.NCCCCNCc1ccccc1Cl [Compound 6c, N-1-(2-Chloro-phenylmethyl)-butane1,4-diamine hydrochloride] |  |  |  |  |  |  |  |  |  | % of Survival [1]: 96%; % of Survival (HaCat keratinocyte): 80%; % of Survival (MDA-MB231 cells): 102%; % of Survival [2, 6]: 100%; % of Survival [3]: 93%; % of Survival [4]: 82%; % of Survival [5]: 98%; % of Survival (diploid skin fibroblasts; [7]): 84% |
| COc1cccc(CNCCCCN2C(=O)/C(=C/c3ccc4c(c3)OCCO4)SC2=S)c1 [Compound 9f, (5Z)3-[4-(3-Methoxyphenylmethylamino)butyl]-5-(2,3-dihydro-1,4-benzodioxin-6-ylmethylene)-2-thioxo-1,3-thiazolidin-4-one] | 98 | 100 | 98 | 96 | 110 | 102 | 113 | 247 to 251 °C | 134 |  |
| COc1ccc(CNCCCCN2C(=O)/C(=C/c3ccc4c(c3)OCO4)SC2=S)cc1 [Compound 9a, (5Z)3-[4-(4-Methoxyphenylmethylamino)butyl]-5-(1,3-benzodioxol-5-ylmethylene)-2-thioxo-1,3-thiazolidin-4-one] | 92 | 103 | 100 | 104 | 109 | 85 | 109 | 170 to 229 °C (dec.) | 104 |  |
| COc1cccc(CNCCCCN2C(=O)/C(=C/c3ccc4c(c3)OCO4)SC2=S)c1 [Compound 9e, (5Z)3-[4-(3-Methoxyphenylmethylamino)butyl]-5-(1,3-benzodioxol-5-ylmethylene)-2-thioxo-1,3-thiazolidin-4-one] | 85 | 86 | 97 | 102 | 97 | 74 | 99 |  | 122 |  |
| O=C1/C(=C/c2ccc3c(c2)OCCO3)SC(=S)N1CCCCNCc1ccc2c(c1)OCCO2 [Compound 9m, (5Z)3-[4-(2,3-Dihydro-benzo[1,4]dioxin-6-ylmethylamino)butyl]-5-(2,3-dihydro-benzo[1,4]dioxin-6-ylmethylene)-2-thioxo-1,3-thiazolidin-4-one] | 96 | 94 | 99 | 98 | 107 | 97 | 103 |  | 149 |  |
| COc1cccc(/C=C2\SC(=S)N(CCCCNCc3cccc(OC)c3)C2=O)c1 [Compound 9g, (5Z)3-[4-(3-Methoxyphenylmethylamino)butyl]-5-(3-methoxybenzylidene)-2-thioxo-1,3-thiazolidin-4-one] | 98 | 110 | 104 | 95 | 117 | 111 | 118 | 225 to 227 °C | 100 |  |
| COc1cccc2c1C(=O)c1c(O)c3c(c(O)c1C2=O)C[C@@](O)(C(=O)CO)C[C@@H]3O[C@H]1C[C@H](N)[C@H](O)[C@H](C)O1 [Doxorubicine, reference compound] | 34 | 88 | 82 | 65 | 43 | 63 | 22 |  | 74 | IC50 (HaCat keratinocyte): 20 nM; IC50 (MDA-MB231 cells): 10 nM; IC50 [3]: 30 nM; IC50 [4]: 30 nM; IC50 [5]: 30 nM |
